The record followed here is patent US20150025077A1 (COYOTE PHARMACEUTICALS, INC., priority 2012, published 2015).

Experiment [1] concerns Sprague-Dawley rats. Briefly: Kainic acid induced neurodegeneration and seizure behaviors in rats (Examples 20, 21). The format is in vivo, rat. As to conditions: oral. From the text:
Seizure behaviors were observed and scored (Ref. R. J. Racine, Modification of seizure activity by electrical stimulation: II. Motor seizure, Electroencephalogr. Clin. […] Modifications were made for the methods). Brain tissues of rats were sectioned on histology slides, and neurons in hippocampus tissues were stained by Nissl. Neurons in dentate gyrus tissues damaged by Kainic acid were quantified. The Memantine composition used in comparison refers to a commercially available NMDA receptor […]. […] Seizure behaviors were observed and scored (Ref. R. J. Racine, Modification of seizure activity by electrical stimulation: II. Motor seizure, Electroencephalogr. Clin. […] Modifications were made for the methods). Brain tissues of rats were sectioned on histology slides, and neurons in hippocampus tissues were stained by Nissl. Neurons damaged by Kainic acid and behavior scores were quantified.

The test system of experiment [2] is HSP70. Briefly: HSP70 levels in Neuro 2a cells, ELISA. The class given is cell-based, mouse. As to conditions: 48 hrs compound then 24 hrs GGTI-298. How it is done:
Mouse neuroblastoma 2a cells were cultured in DMEM with 10% FBS for 24 hrs. […] After 24 hrs cells were harvested and lysates were prepared and analyzed by ELISA for HSP70. Compound ID numbers in table refer to structures in Table 1 and Table 2.
(In general: An ELISA detects its analyte on a solid surface through an enzyme-linked reagent.)

For experiment [3], the system named is Sprague Dawley rats. Kind of experiment: Kainic acid stereotactic hippocampus injection model, fraction of cells damaged. The class given is in vivo, rat. The conditions noted are these: 3 mg/kg oral; KA at 72 hours. The procedure: CNS-102 was administered orally to Sprague Dawley rats at 12 mg/kg. After dosing, KA was stereotactically injected into the hippocampus at 24, 48, 72, 96 and 168 hours to induce neuron damage. After 24 h, hippocampus tissue was collected, stained, and imaged. The scans were analyzed by Image J to calculate the fraction of cells having KA-induced damage. Average fraction damaged in the hippocampus from ten animals for each treatment (PBS vs. 12 mg/kg CNS-102) by time (24, 48, 72, 96 and 168 hours) combination was estimated with PROC MIXED in SAS. Comparisons of the CNS-102 treatment groups to the pooled PBS treatment at the different times can be made, giving the results tabulated below.
The fraction of cells damaged in the kainic acid model was determined on 130 rats, each receiving one dose of CNS-102 at either 0, 1, 3, 6, 12 or 24 mg/kg. PBS was used for dosing at 0 mg/kg. The linear model of the log10 percent damage versus concentration is graphically shown FIG. 5.
After dosing, KA was stereotactically injected into the hippocampus at 72 hours to induce neuron damage. After 24 h, hippocampus tissue was collected, stained, and imaged. The scans were analyzed by Image J to calculate the fraction of cells having KA-induced damage.
The indicated compounds or vehicle control were orally dosed to Sprague-Dawley rats, and Kainic acid was injected. After dosing, KA was stereotactically injected into the hippocampus at 72 hours to induce neuron damage. After 24 h, hippocampus tissue was collected, stained, and imaged. The scans were analyzed by Image J to calculate the fraction of cells having KA-induced damage. Neurons damaged by Kainic acid (mean of hippocampus CA3 neurons damaged) were quantified.

Experiment [4] relates to Rap1. Kind of experiment: Prenylation of Rap1 in Neuro2A cells, western blotting. As to conditions: 100 nM; with GGTI-298; percentage of control (GGTI only). The format is cell-based, mouse. The procedure: Mouse neuroblastoma Neuro2A cells were cultured in DMEM supplemented with 10% FBS for 24 hrs. The cells were treated with 102GGA derivative compounds for 24 hrs first before GGTase inhibitor GGTI-298 was added to the culture medium for additional 24 hr incubation. […] Both un-prenylated and total Rap1 protein bands were quantified using Image J and normalized to their respective loading control GAPDH. The results for control and each compound treatment were calculated as the ratio of normalized un-prenylated Rap1 to total Rap1, and averaged from two biological repeats of one experiment. The final results were presented as a percentage of the control treatments (GGTI only) from the same batch experiment. The data shown in the chart were averaged from two repeats of one experiment and presented as the ratio of normalized un-prenylated Rap1 to total Rapt Compound ID numbers in table refer to structures in Table 1 and Table 2.
For orientation: A western blot detects proteins with antibodies after separation by electrophoresis.

Experiment [5] has as its system RhoA. Kind of experiment: Active RhoA to total RhoA in Neuro2A cells (G-LISA, ELISA). The class given is cell-based, mouse. As to conditions: 48 hrs treatment, ratio of active RhoA to total RhoA as percentage of DMSO treatments, concentration not given. The procedure:
Mouse neuroblastoma Neuro2A cells were cultured in DMEM supplemented with 10% FBS for 24 hrs. […] Cell lysates were quantified and subjected either to active RhoA assay using G-LISA RhoA activation Assay Biochem Kit (Cytoskeleton Inc), or to total RhoA assay using Total RhoA ELISA Kit (Cytoskeleton Inc). The results were calculated as ratio of active RhoA to total RhoA and averaged from 3 biological repeats of one experiment with background subtraction. The data was presented as percentage of DMSO treatments.

Experiment [6] has as its system Neuro2A cells. Kind of experiment: Neuro2A cells that extended neurites, with GGTI-298 (Example 18). The format is cell-based. The conditions noted are these: 0.1-1 μM; vehicle 0.0-0.20. From the text:
After differentiation was induced, cells that extended neurites were counted.

For experiment [7], the system named is HSP70. Briefly: HSP70 expression in neuro2A cells, western blot. The format is cell-based, mouse. The conditions noted are these: for HSP70 western signal (absence of compounds = 1.00): 48 hours, GGTI-298. The procedure: Differentiation was induced and cells incubated with geranylgeranyl transferase I inhibitor, GGTI-298. Cells were harvested and lysates were prepared and analyzed by western blot for HSP70 and HSP90. Western signals in the absence of the compounds were normalized as 1.00.

Experiment [8] concerns Murine neuro2A neuroblastoma cells. Kind of experiment: Neurite outgrowth of neuro2A cells with GGTI-298 (Example 30). The class given is cell-based, mouse. As to conditions: for Protection % / Median Counts (cells with neurite outgrowth) / ratio of counts relative to no inhibition: CNS-102/CNS-103 experiment; for Median Counts (cells with neurite outgrowth): no inhibition 60.3, PBS 18.5. The procedure:
Differentiation was induced and cells incubated with geranylgeranyl transferase I inhibitor, GGTI-298. After 24 h digital images were taken and neurite outgrowth was quantified. The comparisons of the neuroprotective effect of these three compounds are shown below.
The estimated mean log10 counts, from five replicate wells for each treatment group were calculated by PROC GLM in SAS assuming a pooled estimate of variation.
The estimated mean log 10 counts from five replicate wells for each treatment group were calculated by PROC GLM in SAS assuming a pooled estimate of variation.
Differences in mean log(counts) between treatments for each concentration were calculated using PROC GLM in SAS. The p-value given is for the comparison of the estimated difference to zero, the expected difference value for no treatment effect. The anti-log of the differences represent the estimated ratio of counts (relative effect on inhibition) and are tabulated below along with the lower and upper 95% confidence intervals.

Experiment [9] has as its system Mouse Neuro2A neuroblastoma cells. Kind of experiment: Neuro2A cells with neurites after GGTI-298 (Example 16). The format is cell-based. As to conditions: 10 μM. How it is done:
Mouse Neuro2A neuroblastoma cells were cultured in DMEM supplemented with 10% FBS for 24 hrs. […] Then differentiation was induced by retinoic acid in DMEM supplemented with 2% FBS. The cell culture was incubated with a Geranylgeranyl Transferase inhibitor, GGTI-298. After 24 hrs incubation, cells with neurites were counted.

The subject of experiment [10] is Rat primary motor neurons. Kind of experiment: Axon extension of rat primary motor neurons. The format is cell-based. As to conditions: 72 hrs; read-out: EC50 (cells extending axons). How it is done: Rat primary motor neurons were isolated from embryonic spinal cords in accordance with the method of Henderson et al.; J Cohen and G P Wilkin (ed.), Neural Cell Culture, (1995) p69-81 which is herein incorporated by reference in its entirety. Briefly, spinal cords were dissected from day 15 embryo (E15) and incubated in a trypsin solution, and followed by DNase treatment to release spinal cord cells from tissue fragments. The cell suspension was centrifuged to remove tissue fragments. Then motor neurons were enriched by density gradient centrifugation.
Motor neurons were cultured in serum-free neurobasal medium containing insulin, forskolin, 3-isobutyl-1-methylxanthine, neurotrophic factors, Bovine serum albumin, selenium, transferrin, putrescine, progesterone and B27 supplement in tissue culture plate coated with poly-ornithine and laminin.
Rat primary motor neurons were prepared and cultured as described in Example 13. […] The cells extending axons were counted in five different fields for each treatment after 72 hrs. Percentage of positive cells relative to total cells in the same magnification field was calculated and the results were expressed as means+/−standard deviations, n=5.

Experiment [11] has as its system SOD1 mice. Kind of experiment: CatWalk gait analysis in SOD1 mice. The format is in vivo, mouse. Further details: Hind stride length, Mean/average: unit not given beside the values. From the text:
Prior to onset, there was little to no difference between the transgenic and wildtype groups. Transgenic animals tended to rely more on front paws for movement as weakness and paralysis in the hind paws progressed. This began to show around timepoint P100, coinciding with the expected onset of disease. This impairment was seen through changes in front and hind paw step cycle, print area, mean intensity, and base of support.

Consider `CC12CC3CC(C)(C1)CC(N)(C3)C2` [Memantine, reference compound], for which, in experiment [1] (Kainic acid, vehicle 20.9), the “Hippocampus dentate gyrus neurons damaged” value worked out at 3.53 Arbitrary units. Besides, the Seizure behaviors scores in experiment [1] (Kainic acid, vehicle 34) was 36.2.
For `CCCCCNC(=O)OC/C=C(\C)CC/C=C(\C)CCC=C(C)C` [Compound 8b, n-Pentyl 2E, 6E-farnesyl carbamate], the “HSP70 level, ELISA signal (absence of compounds normalized as 1.00)” value in experiment [2] (10uM) is on record as 1.38. In experiment [3], the “Mean of Hippocampus CA3 Neurons Damaged” value was 20%. Moreover, in [4], the “unprenylated/total RAP1 (%)” value turned out to be 55%. For the same compound, the “% Relative RhoGTPase Activity” value in experiment [5] worked out at 125.0%.
As to `CC(C)=CCC/C(C)=C/CC/C(C)=C/CC/C(C)=C/COC(=O)Nc1ccc(C(F)(F)F)cc1` [Compound 7q, p-Trifluoromethylphenyl 2E, 6E, 10E-geranylgeranyl carbamate], in experiment [2] (10 nM), the “HSP70 level, ELISA signal (absence of compounds normalized as 1.00)” value is 1.01. The “unprenylated/total RAP1 (%)” value in [4] came out at 48%. The “% Relative RhoGTPase Activity” value in experiment [5] was determined as 83.5%.
As for `CCOC(=O)C(C/C=C(\C)CC/C=C(\C)CC/C=C(\C)CC/C=C(\C)CCC=C(C)C)C(C)=O` (centres unmarked) [Compound 135], the “HSP70 level, ELISA signal (absence of compounds normalized as 1.00)” value in experiment [2] (10uM) turned out to be 1.07. In addition, the “unprenylated/total RAP1 (%)” value in [4] stood at 50%. Further, the “% Relative RhoGTPase Activity” value in experiment [5] is given as 93.2%.
What is called EC50 is the concentration at which the effect is half-maximal. As to `CC(=O)CC/C=C(/C)CC/C=C(\C)CC/C=C(\C)CCC=C(C)C` [CNS-103], in experiment [6], the “Mean of cell numbers (cells that extended neurites)” value is given as 0.20-0.45 Arbitrary units. Also, the “unprenylated/total RAP1 (%)” value in experiment [4] is 96%. Also, the results for the “HSP70 western signal (absence of compounds = 1.00)” value in experiment [7] (100 nM), in experiment [7] (1 μM) and in experiment [7] (10 μM) were 1.00, 1.07 and 0.99, respectively. Also, the “induction of HSP70 expression” value in experiment [7] (various concentrations) was “failed to induce expression of HSP70”. Moreover, the Protection % is on record as 19.6% in experiment [8] (10 nM), 25.8% in [8] (100 nM), 24.4% in [8] (1000 nM) and −5.3% in experiment [8] (10000 nM). The “Median Counts (cells with neurite outgrowth)” value in experiment [8] (10 nM) is 26.7; in experiment [8] (100 nM) it was 29.3; in [8] (1000 nM), 28.7; in [8] (10000 nM), 16.3. For the same compound, the “ratio of counts relative to no inhibition” value in [8] (10 nM) came out at 0.443; in experiment [8] (100 nM) it was 0.486; in experiment [8] (1000 nM), 0.476; in experiment [8] (10000 nM) it was 0.270. Moreover, the maximum protection in [8] (CNS-102/CNS-103 experiment (FIG. 4B)) is reported as about 26%. The “Mean of cell numbers (cells with neurites)” value in [9] was found to be 0.195 Arbitrary units. Also, in [10], the 50% effective concentration (EC50) was 9.49 nM. Further, the entries for the “Mean of Hippocampus CA3 Neurons Damaged” value in [1] (12 mg/Kg rat) and in [1] (25 mg/Kg rat) were 8.16 Arbitrary units and 10.64 Arbitrary units, respectively.
In the case of `CCCCNC(=S)OC/C=C(\C)CC/C=C(\C)CC/C=C(\C)CCC=C(C)C` [Compound 10e, O-((2E,6E,10E)-3,7,11,15-tetramethylhexadeca-2,6,10,14-tetraen-1-yl) butylcarbamothioate], in experiment [2] (100 nM), the “HSP70 level, ELISA signal (absence of compounds normalized as 1.00)” value is reported as 1.09. The “unprenylated/total RAP1 (%)” value in experiment [4] turned out to be 56%. The “% Relative RhoGTPase Activity” value in experiment [5] was determined as 89.7%.
Regarding `Nc1nc2ccc(OC(F)(F)F)cc2s1` [Riluzole, reference compound], the “Run Duration, Mean/average” value in experiment [11] (P-42, SOD1/Vehicle 1.484746201) was 1.65; in experiment [11] (P-124 (+/−) 3, SOD1/Vehicle 3.461605345), 3.113. Further, the “Hind stride length, Mean/average” value was 6.337 in [11] (P-42, SOD1/Vehicle 6.359471205) and 4.244 in experiment [11] (P-124 (+/−) 3, SOD1/Vehicle 3.607909383). Further, the “Swing speed, Mean/average” value in [11] (P-42, SOD1/Vehicle 45.8515272) amounted to 43.07; in experiment [11] (P-124 (+/−) 3, SOD1/Vehicle 23.93413455), 29.71.
